According to PubChem BioAssay (NCI):
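Cells were grown in 96-well plates and exposed to each compound for 48 hours at five concentrations; endpoints were interpolated linearly between bracketing concentrations, or set to the highest concentration if not reached. TGI: concentration producing complete growth inhibition.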

Key:
Test in all cases: inhibition of tumour cell growth, NCI panel, 48 h
SK-MEL-28 melanoma = system: SK-MEL-28 melanoma
ACHN renal = system: ACHN renal
UACC-62 melanoma = system: UACC-62 melanoma
SNB-75 CNS = system: SNB-75 CNS
HCT-116 colon = system: HCT-116 colon
KM12 colon = system: KM12 colon
OVCAR-3 ovarian = system: OVCAR-3 ovarian
CCRF-CEM leukemia = system: CCRF-CEM leukemia
MALME-3M melanoma = system: MALME-3M melanoma
HOP-62 NSCLC = system: HOP-62 NSCLC
K-562 leukemia = system: K-562 leukemia
M19-MEL melanoma = system: M19-MEL melanoma
COLO 205 colon = system: COLO 205 colon
DMS 114 small cell lung = system: DMS 114 small cell lung
SF-268 CNS = system: SF-268 CNS
NCI-H522 lung = system: NCI-H522 lung
OVCAR-4 ovarian = system: OVCAR-4 ovarian
NCI-H23 lung = system: NCI-H23 lung
HL-60(TB) leukemia = system: HL-60(TB) leukemia
OVCAR-5 ovarian = system: OVCAR-5 ovarian
M14 melanoma = system: M14 melanoma
LXFL 529 NSCLC = system: LXFL 529 NSCLC
U251 CNS = system: U251 CNS
SNB-78 CNS = system: SNB-78 CNS
HOP-92 NSCLC = system: HOP-92 NSCLC
UO-31 renal = system: UO-31 renal
SF-295 CNS = system: SF-295 CNS
KM20L2 colon = system: KM20L2 colon
SR leukemia = system: SR leukemia
RPMI-8226 leukemia = system: RPMI-8226 leukemia
HT29 colon = system: HT29 colon
NCI-H460 lung = system: NCI-H460 lung
SF-539 CNS = system: SF-539 CNS
SK-MEL-2 melanoma = system: SK-MEL-2 melanoma
UACC-257 melanoma = system: UACC-257 melanoma
SK-OV-3 ovarian = system: SK-OV-3 ovarian
A498 renal = system: A498 renal
IGROV1 ovarian = system: IGROV1 ovarian
MOLT-4 leukemia = system: MOLT-4 leukemia
RXF 393 renal = system: RXF 393 renal
SNB-19 CNS = system: SNB-19 CNS
786-0 renal = system: 786-0 renal
TK-10 renal = system: TK-10 renal
HOP-18 NSCLC = system: HOP-18 NSCLC

Structure (SMILES)	TGI (SK-MEL-28 melanoma) [µM]	TGI (ACHN renal) [µM]	TGI (UACC-62 melanoma) [µM]	TGI (SNB-75 CNS) [µM]	TGI (KM12 colon) [µM]	TGI (OVCAR-3 ovarian) [µM]	TGI (CCRF-CEM leukemia) [µM]	TGI (HOP-62 NSCLC) [µM]	TGI (K-562 leukemia) [µM]	TGI (M19-MEL melanoma) [µM]	TGI (COLO 205 colon) [µM]	TGI (DMS 114 small cell lung) [µM]	TGI (SF-268 CNS) [µM]	TGI (NCI-H522 lung) [µM]	TGI (OVCAR-4 ovarian) [µM]	TGI (HL-60(TB) leukemia) [µM]	TGI (OVCAR-5 ovarian) [µM]	TGI (UO-31 renal) [µM]	TGI (SR leukemia) [µM]	TGI (HT29 colon) [µM]	also measured
CCc1c(O)c(O)c(C(C)=O)c2c(O)c(-c3c(C)cc4c(CC)c(O)c(O)c(C(C)=O)c4c3O)c(C)cc12	27.2	28.8	24.7	30.7	11.7	18	8.64	27.4	11.3	30.8	21.4	18.4	37.1	14.8	26.5	14.9	32.9	22.3	> 100	17.1	TGI (HCT-116 colon): 14.3 µM; TGI (MALME-3M melanoma): 31.5 µM; TGI (NCI-H23 lung): 16.1 µM; TGI (M14 melanoma): 21.6 µM; TGI (LXFL 529 NSCLC): 16.5 µM; TGI (U251 CNS): 21.4 µM; TGI (SNB-78 CNS): 12.1 µM; TGI (HOP-92 NSCLC): 10.4 µM; TGI (SF-295 CNS): 11 µM; TGI (KM20L2 colon): 17.6 µM; TGI (RPMI-8226 leukemia): 24.2 µM; TGI (NCI-H460 lung): 38.5 µM; TGI (SF-539 CNS): 22.4 µM; TGI (SK-MEL-2 melanoma): 23 µM; TGI (UACC-257 melanoma): 24.3 µM
[N-]=[N+]=NC1(c2ccccc2)C(=O)c2cccc3c2N(CCC3)C1=O (stereo unspecified)	> 100	> 100	> 100	> 100	> 100	> 100	–	> 100	89.4	> 100	> 100	> 100	> 100	> 100	> 100	64.5	> 100	74.3	> 100	> 100	TGI (SK-OV-3 ovarian): > 100 µM; TGI (A498 renal): > 100 µM; TGI (NCI-H23 lung): > 100 µM; TGI (M14 melanoma): > 100 µM; TGI (IGROV1 ovarian): > 100 µM; TGI (LXFL 529 NSCLC): > 100 µM; TGI (MOLT-4 leukemia): > 100 µM; TGI (U251 CNS): > 100 µM; TGI (SNB-78 CNS): > 100 µM; TGI (RXF 393 renal): > 100 µM; TGI (SNB-19 CNS): > 100 µM; TGI (HOP-92 NSCLC): > 100 µM; TGI (SF-295 CNS): > 100 µM; TGI (KM20L2 colon): > 100 µM; TGI (RPMI-8226 leukemia): > 100 µM; TGI (786-0 renal): > 100 µM; TGI (NCI-H460 lung): > 100 µM; TGI (SK-MEL-2 melanoma): > 100 µM; TGI (UACC-257 melanoma): 82.7 µM
CCCC(=O)OC[n+]1ccc2c(C)c3[nH]c4ccccc4c3c(C)c2c1	–	–	–	> 100	1.8	–	> 100	–	> 100	> 100	–	–	–	–	–	> 100	2.34	5.59	17.5	> 100	TGI (TK-10 renal): 5.5 µM; TGI (MOLT-4 leukemia): 3.04 µM; TGI (HOP-18 NSCLC): 2.99 µM
